Results taken from PubChem BioAssay AID588712 (The Scripps Research Institute Molecular Screening Center, 2011).
Several values for one entry are separate records, joined by “and”; a condition that tells them apart may be missing. Identical values can stand only once. Activity calls are given as the source filed them. No rule for the calls is given here.

Target: Insulin-degrading enzyme (Homo sapiens) (UniProt P14735)
Test: inhibitors of cellular IDE activity, late-stage follow-up, cell-based, fluorescence polarization (AID 588712)

Chain of Insulin-degrading enzyme (Homo sapiens) (P14735 whole entry, looked up): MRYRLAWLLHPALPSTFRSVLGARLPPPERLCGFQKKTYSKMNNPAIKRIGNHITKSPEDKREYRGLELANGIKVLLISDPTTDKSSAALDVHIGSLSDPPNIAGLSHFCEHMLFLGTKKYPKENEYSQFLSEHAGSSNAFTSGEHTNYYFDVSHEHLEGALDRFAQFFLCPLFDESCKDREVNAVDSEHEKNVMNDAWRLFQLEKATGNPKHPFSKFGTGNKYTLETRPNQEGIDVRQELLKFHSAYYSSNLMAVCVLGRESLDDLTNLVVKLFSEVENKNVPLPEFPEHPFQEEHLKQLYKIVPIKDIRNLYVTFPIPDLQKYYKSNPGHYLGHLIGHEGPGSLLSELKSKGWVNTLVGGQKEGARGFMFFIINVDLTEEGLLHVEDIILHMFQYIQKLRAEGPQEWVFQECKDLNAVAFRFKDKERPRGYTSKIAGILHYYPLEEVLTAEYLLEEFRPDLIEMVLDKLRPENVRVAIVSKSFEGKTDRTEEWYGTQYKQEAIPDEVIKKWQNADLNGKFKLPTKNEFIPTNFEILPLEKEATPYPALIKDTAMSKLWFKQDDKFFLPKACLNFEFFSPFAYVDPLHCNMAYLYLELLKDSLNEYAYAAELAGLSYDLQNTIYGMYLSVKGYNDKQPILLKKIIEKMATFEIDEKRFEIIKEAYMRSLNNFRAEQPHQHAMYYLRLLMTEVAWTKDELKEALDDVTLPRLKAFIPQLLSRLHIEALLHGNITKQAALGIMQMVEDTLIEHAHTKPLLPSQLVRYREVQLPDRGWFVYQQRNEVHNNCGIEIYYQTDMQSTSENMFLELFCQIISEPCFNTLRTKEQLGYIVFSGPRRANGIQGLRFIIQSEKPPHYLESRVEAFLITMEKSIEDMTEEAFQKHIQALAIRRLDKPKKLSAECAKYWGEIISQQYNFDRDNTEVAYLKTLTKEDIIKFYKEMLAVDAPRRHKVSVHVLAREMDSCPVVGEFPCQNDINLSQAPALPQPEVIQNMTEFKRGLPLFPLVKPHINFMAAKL

Compound	IC50
Clc1cccc(-c2nnc(SCc3nc4ccccc4[nH]3)n2Cc2ccco2)c1	3.09 µM
O=C(Nc1cccc(C(F)(F)F)c1)c1csc(-c2cccc(C(F)(F)F)c2)n1	> 54.7 µM (inactive)
Cn1c(SCc2nc3ccccc3[nH]2)nnc1-c1cccc(Cl)c1	> 54.7 µM (inactive)
Cc1c(CCC(=O)NCCCn2ccnc2)c(=O)oc2cc3oc4c(c3cc12)CCCC4	7.32 µM
COc1cccc(-c2nnc(SCc3nc4ccccc4[nH]3)n2Cc2ccco2)c1	9.38 µM
Cc1nc(-c2cccnc2)sc1C(=O)Nc1cccc(C(F)(F)F)c1	> 54.7 µM (inactive)
Nc1c(C(=O)Nc2nccs2)sc2nc(-c3cccs3)cc(C(F)(F)F)c12	> 54.7 µM (inactive)
COc1cc(/C=C2\SC(=S)N(NC(C)=O)C2=O)ccc1OC(=O)c1ccco1	inactive
COc1ccc(NC(=O)CSc2nnc(CN3CCOCC3)n2C)cc1Cl	> 54.7 µM (inactive)
CCOc1ccc2[nH]c3c(N4CCN(C(=O)c5ccco5)CC4)ncnc3c2c1	inactive
COc1ccc(C(=O)N2CCN(C(=O)C3COc4ccccc4O3)CC2)cc1OC (stereo unspecified)	> 54.7 µM (inactive)
Cc1ccc(C)c(N2C(=N)S/C(=C\c3ccc(-c4ccccc4C(=O)O)o3)C2=O)c1	> 54.7 µM (inactive)
O=C(CSc1nnc(-c2cccc(Cl)c2)n1Cc1ccco1)Nc1ccc2cn[nH]c2c1	> 54.7 µM (inactive)
O=c1c2ccccc2sn1-c1cc(S(=O)(=O)N2CCOCC2)ccc1N1CCOCC1	2.17 µM
O=C(Nc1cccc(C(F)(F)F)c1)c1csc(Cc2cccc(C(F)(F)F)c2)n1	> 54.7 µM (inactive)
O=C(CSc1nnc(-c2cccc(Cl)c2)n1Cc1ccco1)c1ccc2ccccc2c1	> 54.7 µM (inactive)

Compound	IC50
O=C(Nc1ccc2oc(-c3cccnc3)nc2c1)c1ccc2c(c1)OCCO2	> 54.7 µM (inactive)
O=C(C1CC1)N1CCN(c2ccnc3cc(Cl)ccc23)CC1	> 54.7 µM (inactive)
O=C(CSc1nnc(-c2cccc(Cl)c2)n1Cc1ccco1)Nc1ccc2c(c1)OCCO2	> 54.7 µM (inactive)
Cc1ccc(NC(=O)CSc2nnc(-c3cccc(Cl)c3)n2Cc2ccco2)c(C)c1	> 54.7 µM (inactive)
CCN(CC)c1ccc(/C=C2\C(=N)N3N=C(CC(=O)N4CCOCC4)SC3=NC2=O)cc1	inactive
COc1ccc(-c2nc(C(=O)Nc3cccc(C(F)(F)F)c3)cs2)cc1	> 54.7 µM (inactive)
Cc1cccc(-c2nnc(SCc3nc4ccccc4[nH]3)n2Cc2ccco2)c1	9.21 µM and 8.91 µM
O=C(CSc1nnc(-c2cccc(Cl)c2)n1Cc1ccco1)Nc1ccccc1C(F)(F)F	> 54.7 µM (inactive)
O=C(Nc1cccc(C(F)(F)F)c1)c1csc(-c2ccncc2)n1	5.74 µM
CC(Sc1nnc(-c2cccnc2)n1-c1ccccc1F)C(=O)N1CCCc2ccccc21 (stereo unspecified)	> 54.7 µM (inactive)
Cn1c(=O)c(C(=O)CN2CCCc3ccccc32)c(N)n(Cc2ccccc2)c1=O	> 54.7 µM (inactive)
O=C(Nc1cccc(C(F)(F)F)c1)c1csc(-c2ccccc2)n1	> 54.7 µM (inactive)
O=C(Nc1cc(C(F)(F)F)cc(C(F)(F)F)c1)c1csc(-c2ccncc2)n1	> 54.7 µM (inactive)
Cc1ccc(-c2nc(C(=O)Nc3cccc(C(F)(F)F)c3)cs2)cc1	> 54.7 µM (inactive)
Clc1cccc(-c2nnc(SCc3nc4ccccc4[nH]3)n2-c2ccccc2)c1	> 54.7 µM (inactive)
